# Values of other authors as cited in patent US20030129616A1, “Use of a mutation in the gene for the beta3-subunit of human g-protein” (priority 2000, published 2003).
# Test system: bladder tumor cells
substance,measurement,value
pertussis toxin,migration of bladder tumor cells,greatly inhibited
